Data published in patent publication US20180185309A1, “METHODS AND COMPOSITIONS FOR TREATING NEPHROPATHY” (The Regents of the University of California, priority 2015, published 2018).

How the values were obtained:
[1] = chemical chaperones that inhibit ER stress; cited from earlier work
sEH = biological target: T1, sEH (Homo sapiens, UniProt P34913); assay: sEH inhibition, assay not specified; type: biochemical
T1 sequence (P34913 1-555): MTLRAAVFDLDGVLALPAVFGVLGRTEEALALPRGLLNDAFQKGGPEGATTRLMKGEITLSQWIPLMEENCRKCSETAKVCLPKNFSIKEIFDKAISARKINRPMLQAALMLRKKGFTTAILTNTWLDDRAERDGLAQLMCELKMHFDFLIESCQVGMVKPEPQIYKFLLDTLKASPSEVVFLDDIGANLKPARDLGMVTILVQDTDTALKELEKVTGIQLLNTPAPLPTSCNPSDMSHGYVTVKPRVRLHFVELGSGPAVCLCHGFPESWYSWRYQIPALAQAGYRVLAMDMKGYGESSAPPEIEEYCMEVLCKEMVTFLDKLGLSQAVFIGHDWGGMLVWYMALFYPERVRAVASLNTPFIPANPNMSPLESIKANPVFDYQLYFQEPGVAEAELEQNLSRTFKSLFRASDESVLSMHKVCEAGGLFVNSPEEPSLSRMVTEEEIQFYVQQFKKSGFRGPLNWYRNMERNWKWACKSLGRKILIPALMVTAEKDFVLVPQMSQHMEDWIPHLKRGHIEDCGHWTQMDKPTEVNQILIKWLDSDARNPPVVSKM
Excerpt: “Soluble epoxide hydrolase” (“sEH”) is an epoxide hydrolase which in endothelial and smooth muscle cells converts EETs to dihydroxy derivatives called dihydroxyeicosatrienoic acids (“DHETs”). The cloning and sequence of the murine sEH is set forth in Grant et al., J. Biol. Chem. 268(23):17628-17633 (1993). The cloning, sequence, and accession numbers of the human sEH sequence are set forth in Beetham et al., Arch. Biochem. Biophys. 305(1):197-201 (1993). The amino acid sequence of human sEH is SEQ ID NO.:1, while the nucleic acid sequence encoding the human sEH is SEQ ID NO.:2. (The sequence set forth as SEQ ID NO.:2 is the coding portion of the sequence set forth in the Beetham et al. 1993 paper and in the NCBI Entrez Nucleotide Browser at accession number L05779, which include the 5′ untranslated region and the 3′ untranslated region.) The evolution and nomenclature of the gene is discussed in Beetham et al., DNA Cell Biol. 14(1):61-71 (1995). Soluble epoxide hydrolase represents a single highly conserved gene product with over 90% homology between rodent and human (Arand et al., FEBS Lett., 338:251-256 (1994)). Unless otherwise specified, as used herein, the terms “soluble epoxide hydrolase” and “sEH” refer to human sEH. […]

[2] = Metabolic stability, method not specified; type: in vitro ADME

Compound	DN disease progression [1]	activity on sEH (sEH)	metabolic stability [2]
O=C(O)CCCc1ccccc1 [4-PBA, 4-phenyl butyric acid]	slow DN disease progression	–	–
CCCCCCCCCCCCNC(=O)NC12CC3CC(CC(C3)C1)C2 [ADU, N-Adamantyl-N′-dodecyl urea]	–	particularly high activity	metabolically stable
C[C@H](CCC(=O)NCCS(=O)(=O)O)[C@H]1CC[C@H]2[C@@H]3[C@@H](O)C[C@@H]4C[C@H](O)CC[C@]4(C)[C@H]3CC[C@]12C [TUDCA, tauroursodeoxycholic acid]	slow DN disease progression	–	–
